ChEMBL document CHEMBL1201862, “PubChem BioAssay data set” (2004)
Activity calls are given as the source filed them.

Legend:
[1] = HepG2 cell cytotoxicity, dose response, cytotoxicity control, ATP luminescence, cherry-pick, activator set 2 (AID 1053143); assay type: functional, cell-based
Major prion protein = Major prion protein (Homo sapiens, UniProt P04156); assay type: functional, cell-based
[2] = test system: Streptococcus sp. 'group A'; assay: growth inhibition of control SK(-) GAS strain, dose response, counter-screen for streptokinase expression inhibitor project, luminescence, kanamycin, BacTiterGlo, confirmation (AID 1900); assay type: functional, organism-based
Streptococcus = assay: Group A Streptococcus viability loss, dose response, counter-screen for streptokinase expression inhibitor project, luminescence, BacTiterGlo (AID 1915); assay type: functional, organism-based;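 further: potency for reduction of bacterial viability or growth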
[3] = human group III sPLA2 inhibitors, dose response, biochemical, QFRET, IC50 (AID 743457);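 further: green fluorescence rise as the enzyme cleaves BODIPY PC-A2 in liposomes; potency for inhibition of the enzyme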
[4] = biological target: T1, Endoribonuclease toxin MazF (Escherichia coli K-12, UniProt P0AE70); assay: MazF toxin RNase activators, dose response, biochemical, fluorescence, single-stranded RNA substrate, uHTS hits (AID 588481); assay type: functional
T1 sequence (P0AE70 whole entry): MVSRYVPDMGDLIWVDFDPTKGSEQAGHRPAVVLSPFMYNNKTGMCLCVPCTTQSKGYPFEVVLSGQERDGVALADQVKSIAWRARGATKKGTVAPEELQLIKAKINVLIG

[5] = biological target: T1, Endoribonuclease toxin MazF; assay: fluorescent RNA oligo signal without MazF, dose response, counter-screen for MazEF activator project, biochemical, fluorescence, single-stranded RNase substrate (AID 588502); assay type: functional
[6] = biological target: T2, Sentrin-specific protease 1 (Homo sapiens, UniProt Q9P0U3); assay: Dose response confirmation of small molecule inhibitors of the catalytic domain of the SUMO protease, SENP1 in a FRET assay.; assay type: functional; conditions: read-out: IC50_Mean
T2 sequence (Q9P0U3 whole entry): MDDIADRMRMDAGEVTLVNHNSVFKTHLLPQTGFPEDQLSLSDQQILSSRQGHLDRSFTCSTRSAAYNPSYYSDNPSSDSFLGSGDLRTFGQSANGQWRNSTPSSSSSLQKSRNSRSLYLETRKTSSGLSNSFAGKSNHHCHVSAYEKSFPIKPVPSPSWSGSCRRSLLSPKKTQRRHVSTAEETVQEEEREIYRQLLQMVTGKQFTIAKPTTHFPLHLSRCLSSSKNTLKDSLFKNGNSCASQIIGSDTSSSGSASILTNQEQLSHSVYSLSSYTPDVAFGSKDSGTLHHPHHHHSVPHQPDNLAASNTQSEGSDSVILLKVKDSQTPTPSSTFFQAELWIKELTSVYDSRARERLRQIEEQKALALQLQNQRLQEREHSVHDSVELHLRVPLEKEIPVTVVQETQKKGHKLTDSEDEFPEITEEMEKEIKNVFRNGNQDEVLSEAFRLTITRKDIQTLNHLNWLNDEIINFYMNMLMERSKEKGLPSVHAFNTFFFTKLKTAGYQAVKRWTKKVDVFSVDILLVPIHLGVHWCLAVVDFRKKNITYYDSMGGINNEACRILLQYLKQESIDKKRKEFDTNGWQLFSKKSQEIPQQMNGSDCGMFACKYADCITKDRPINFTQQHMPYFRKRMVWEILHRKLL

In the case of `Cc1noc(C)c1C(=O)Nc1nc2ccc(F)cc2s1`, the AC50 [1] is reported as > 52 µM (inactive).
In the case of `Brc1cc(Br)c2nc3c(cc2c1)CCC3`, the IC50 (Major prion protein) is reported as 5.89 µM (active) and the IC50 (cells) is reported as > 138 µM (inactive).
With `O=C(Cc1ccccc1)NNC(=S)NC(=O)c1cccs1` the EC50 [2] was 3.33 µM (active), the EC50 (Streptococcus) was 7.51 µM (active) and the IC50 [3] was > 122 µM (inactive).
With `Oc1ccc(Cl)cc1C1=Nc2ccccc2N=C(c2ccco2)C1` the EC50 [4] was > 99 µM (inactive), the EC50 [5] was > 99 µM (inactive) and the IC50 [6] was 8.31 µM (active).
For `CCn1c(S)nnc1-c1csc(C(C)C)c1`, the IC50 [3] was > 122 µM (inactive).
